According to patent publication US6583137B1, “Protease inhibitors” (SmithKline Beecham Corporation, priority 1999, dated 2003):

Test: Chiral / configurational stability at the carbon alpha to the ketone
Type: physicochemical

configurational stability at the carbon center alpha to the ketone (compared to the corresponding 5 and 6 membered ring compounds): configurationally more stable
chiral stability (compared to the protonated isomer): superior chiral stability
Compound: [2H]C1(NC(=O)[C@H](CC(C)C)NC(=O)c2cnc3ccccc3n2)CCCN(S(=O)(=O)c2cccc[n+]2[O-])C([2H])([2H])C1=O (stereo partly drawn) [present compound, quinoxaline-2-carboxylic acid {(S)-3-methyl-1-[(2,2′,4-trideuterio)-3-oxo-1-(1-oxy-pyridine-2-sulfonyl)-azepan-4-ylcarbamoyl]-butyl}amide]
